We go through 1 compound from paper PMC11814083, “Effect of pH and buffer on substrate binding and catalysis by cis-aconitate decarboxylase” (Scientific Reports, 2025).

Holding throughout (assay): HPLC of itaconate, UV […] nm, Michaelis-Menten fit
Common to all, as to assay type: biochemical

One experiment addresses T1, aCAD (Aspergillus terreus, UniProt B3IUN8).
T1 construct: gene cad1; aa 12-490, recombinant from E. coli, clone CAD16 (by order of listing), purified; homodimer
T1 sequence (B3IUN8 12-490): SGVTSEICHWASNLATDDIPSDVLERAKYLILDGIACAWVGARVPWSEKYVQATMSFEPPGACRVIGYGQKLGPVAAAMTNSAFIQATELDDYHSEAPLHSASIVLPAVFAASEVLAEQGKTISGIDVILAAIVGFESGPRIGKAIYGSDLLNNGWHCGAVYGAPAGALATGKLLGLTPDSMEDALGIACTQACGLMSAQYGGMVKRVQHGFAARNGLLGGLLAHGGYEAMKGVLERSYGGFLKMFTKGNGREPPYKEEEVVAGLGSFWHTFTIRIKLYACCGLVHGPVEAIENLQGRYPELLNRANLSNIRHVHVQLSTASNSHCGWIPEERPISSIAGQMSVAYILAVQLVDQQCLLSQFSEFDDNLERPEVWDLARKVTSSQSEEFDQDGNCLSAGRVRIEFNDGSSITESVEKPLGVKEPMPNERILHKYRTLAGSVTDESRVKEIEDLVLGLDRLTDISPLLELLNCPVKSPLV
The conditions noted are these: pH 7.0, 37 °C, 50 mM MOPS, 100 mM NaCl; 95% confidence interval in brackets; other pH 5.5-7.5 also in table.

A further experiment has as its target T2, mACOD1 (Mus musculus, UniProt P54987).
T2 construct: gene Acod1; aa 4-461, recombinant from E. coli, clone CAD39 (by order of listing), purified; homodimer
T2 sequence (P54987 4-461): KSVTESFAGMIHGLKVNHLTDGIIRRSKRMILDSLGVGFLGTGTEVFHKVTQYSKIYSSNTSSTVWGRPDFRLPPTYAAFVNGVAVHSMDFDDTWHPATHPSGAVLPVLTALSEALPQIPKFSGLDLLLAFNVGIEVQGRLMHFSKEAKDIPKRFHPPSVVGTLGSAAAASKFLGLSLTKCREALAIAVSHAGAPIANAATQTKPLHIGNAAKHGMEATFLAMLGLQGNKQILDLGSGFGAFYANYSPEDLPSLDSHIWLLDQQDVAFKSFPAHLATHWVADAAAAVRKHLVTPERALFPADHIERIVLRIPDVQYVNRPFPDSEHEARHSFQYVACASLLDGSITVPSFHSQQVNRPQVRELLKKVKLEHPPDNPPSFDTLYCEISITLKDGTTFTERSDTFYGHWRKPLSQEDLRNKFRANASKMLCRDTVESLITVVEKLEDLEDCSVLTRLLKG
The conditions noted are these: pH 7.0, 37 °C, 50 mM MOPS, 100 mM NaCl; 95% confidence interval in brackets; other pH 5.5-8.25 also in table.

The target in a further experiment is T3, hACOD1 (Homo sapiens, UniProt A6NK06).
T3 construct: gene ACOD1; aa 4-461, recombinant from E. coli, clone CAD29, purified; homodimer
T3 sequence (A6NK06 4-461): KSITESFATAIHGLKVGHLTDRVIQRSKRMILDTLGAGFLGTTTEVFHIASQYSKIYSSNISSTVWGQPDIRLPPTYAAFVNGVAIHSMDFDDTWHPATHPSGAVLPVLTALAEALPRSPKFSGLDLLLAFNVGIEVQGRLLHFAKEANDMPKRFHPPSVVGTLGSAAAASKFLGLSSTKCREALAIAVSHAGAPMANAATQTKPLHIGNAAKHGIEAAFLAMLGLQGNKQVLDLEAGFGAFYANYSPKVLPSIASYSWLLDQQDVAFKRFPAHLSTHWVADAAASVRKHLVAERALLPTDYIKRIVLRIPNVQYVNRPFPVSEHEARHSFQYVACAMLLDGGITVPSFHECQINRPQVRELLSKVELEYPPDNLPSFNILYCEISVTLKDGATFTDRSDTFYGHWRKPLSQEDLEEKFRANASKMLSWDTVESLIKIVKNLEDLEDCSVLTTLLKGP
The conditions noted are these: pH 7.0, 37 °C, 50 mM MOPS, 100 mM NaCl; 95% confidence interval in brackets; other pH 5.5-8.25 also in table.

Each structure is given as a SMILES string.

For `O=C(O)/C=C(/CC(=O)O)C(=O)O` [cis-aconitate], the “KM (95% confidence interval) (mM) / aCAD / kcat (95% confidence interval) (s^-1) / kcat/KM (M^-1 s^-1)” value on aCAD is listed as 2.1 (1.9-2.5) mM. In addition, the “Michaelis constant (KM)” value on mACOD1 is given as 0.17 (0.15-0.19) mM. Further, the “KM (95% confidence interval) (mM) / hACOD1 / kcat (95% confidence interval) (s^-1) / kcat/KM (M^-1 s^-1)” value on hACOD1 is 0.23 (0.21-0.26) mM.
